Test results from PMC3925085, “Subditine, a New Monoterpenoid Indole Alkaloid from Bark of Nauclea subdita (Korth.) Steud. Induces Apoptosis in Human Prostate Cancer Cells” (PLoS ONE, 2014).

Tested on: glutathione reductase (GR) gene expression in LNCaP cells
Experiment: Oxidative stress and antioxidant defense qPCR-array, LNCaP
Assay type: cell-based, human
Conditions: 12.5 µM, 18 h, relative to control cells
Procedure: LNCaP and PC-3 cells were treated with subditine (1) (12.5 µM) for 18 h. RNA was extracted from PC-3 or LNCaP cells using RNeasy plus mini kit (Qiagen). 1 µg of RNA was reverse transcribed into cDNA using the RT2 first strand kit (SA Biosciences, Qiagen).cDNA was mixed with RT2 Real Time™ SYBR Green/fluorescein PCR master-mix and loaded into each 96 wells of the Human Oxidative Stress and Antioxidant Defense qPCR array according to the manufacturer’s protocol (SA Biosciences, Qiagen). Briefly, a total volume of 25 µl of PCR mixture, which included 12.5 µl of mastermix, 11.5 µl of double distilled water, and 1 µl of cDNA was loaded into each of the 96wells. qPCR were done using StepOne PLUS real-time PCR machine (Applied Biosystems). PCR amplification was conducted at 95°C for 10 min, followed by 40 cycles of 95°C for 15 sec and 60°C for 1 min. The mRNA expression for each gene was normalized using the average expression of five housekeeping genes:
β-actin (ACTB), β-2-microglobulin (β2M), hypoxanthine phosphoribosyltransferase 1 (HPRT1), ribosomal protein L13a (RPL13A) and glyceraldehyde-3-phosphate dehydrogenase (GAPDH). The ΔΔCt method was used for data analysis. Fold changes were calculated for each gene as the difference in gene expression between subditine (1) or non-treated control using the RT Profiler qPCR-array data analysis software.

Compound: Cc1ncc2c(=O)n3c(cc2c1C=O)-c1[nH]c2ccccc2c1CC3 [Subditine, subditine]
- glutathione reductase (GR) gene expression fold change: > 100 fold
